The term IC50 denotes the concentration at which inhibition is half-maximal.

One data set has as its target BLK (Homo sapiens, UniProt P51451). As to the kind of experiment: NanoBRET in-cell target engagement, BLK. The class given is binding. The arrangement: host or cells: HEK296T (so in the source). On the procedure: (§1) In-cell target engagement was performed at Reaction Biology Corporation, using NanoBRET technology. Very briefly, HEK296T cells were transfected and treated in duplicate with JS25 for 1 h of incubation. The compound was diluted 10 times with 3-fold dilution, starting at 1 μM. Curve fits were performed only when the % NanoBret signal at the highest concentration of compounds was less than 55%. The IC50 values were determined using GraphPad Prism 8 ([…]).
(BRET reads energy transfer from a luciferase to a nearby fluorophore.)

Another data set deals with BTK (Homo sapiens, UniProt Q06187). The experiment in a line: BTK degradation in Raji cells (Western blot). The arrangement: endogenous in cells; host or cells: Raji cells (Burkitt's lymphoma). Conditions: 10 μM. The class given is cell-based. On the procedure: Raji cells were inoculated at 0.5 × 10^6 cells/mL, and JS25 was added at a final concentration of 10 μM. At 0, 4, and 15 h of incubation, the cells were harvested, and the pellets were resuspended in lysis buffer (20 mM Tris–HCl, 150 mM NaCl, pH 8.0, 0.1% Triton X-100), supplemented with EDTA-free Protease Inhibitor Cocktail (Merck) and DNase I (Merck). The protein concentration was determined using the Pierce BCA Protein Assay Kit (Thermo Scientific). Western blot was performed with rabbit BTK antibody (1:1000; 3533, Cell Signaling Technology), mouse α-Tubulin antibody (1:5000; 5168, Merck), goat anti-rabbit IgG (H + L) secondary antibody HRP (1:7000; 65-6120, Invitrogen), and goat anti-mouse IgG (H + L) secondary antibody HRP (1:5000; 2-6520, Invitrogen).
BTK, sequence (Q06187 whole entry): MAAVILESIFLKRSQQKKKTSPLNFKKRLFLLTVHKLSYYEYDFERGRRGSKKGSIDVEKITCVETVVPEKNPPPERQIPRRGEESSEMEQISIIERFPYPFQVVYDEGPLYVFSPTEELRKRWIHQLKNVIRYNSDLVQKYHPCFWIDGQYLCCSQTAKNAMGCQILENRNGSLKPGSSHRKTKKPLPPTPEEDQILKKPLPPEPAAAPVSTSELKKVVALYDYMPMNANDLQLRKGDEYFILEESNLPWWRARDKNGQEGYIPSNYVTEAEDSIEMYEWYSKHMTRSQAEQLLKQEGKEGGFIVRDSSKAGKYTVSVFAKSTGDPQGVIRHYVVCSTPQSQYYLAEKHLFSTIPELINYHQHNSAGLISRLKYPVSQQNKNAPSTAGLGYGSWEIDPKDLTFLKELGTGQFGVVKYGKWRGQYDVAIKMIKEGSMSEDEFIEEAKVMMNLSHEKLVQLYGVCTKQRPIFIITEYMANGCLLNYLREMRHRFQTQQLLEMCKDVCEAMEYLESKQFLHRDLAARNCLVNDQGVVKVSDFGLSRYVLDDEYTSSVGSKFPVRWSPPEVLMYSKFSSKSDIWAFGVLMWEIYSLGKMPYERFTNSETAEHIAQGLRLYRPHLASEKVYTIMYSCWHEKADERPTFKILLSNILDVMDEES
(In general: In western blotting, separated proteins are transferred to a membrane and probed.)

The next data set concerns the target T1, EGFR (Homo sapiens, UniProt P00533).
T1 construct: host or cells: HEK296T (so in the source)
As to the kind of experiment: NanoBRET in-cell target engagement, EGFR. The class given is binding. The note with it: HEK296T cells, 1 h incubation, average of duplicates. On the procedure:
as §1

Another data set deals with T2, TEC (Homo sapiens, UniProt P42680).
T2 construct: host or cells: HEK296T (so in the source)
T2 sequence (P42680 1-631): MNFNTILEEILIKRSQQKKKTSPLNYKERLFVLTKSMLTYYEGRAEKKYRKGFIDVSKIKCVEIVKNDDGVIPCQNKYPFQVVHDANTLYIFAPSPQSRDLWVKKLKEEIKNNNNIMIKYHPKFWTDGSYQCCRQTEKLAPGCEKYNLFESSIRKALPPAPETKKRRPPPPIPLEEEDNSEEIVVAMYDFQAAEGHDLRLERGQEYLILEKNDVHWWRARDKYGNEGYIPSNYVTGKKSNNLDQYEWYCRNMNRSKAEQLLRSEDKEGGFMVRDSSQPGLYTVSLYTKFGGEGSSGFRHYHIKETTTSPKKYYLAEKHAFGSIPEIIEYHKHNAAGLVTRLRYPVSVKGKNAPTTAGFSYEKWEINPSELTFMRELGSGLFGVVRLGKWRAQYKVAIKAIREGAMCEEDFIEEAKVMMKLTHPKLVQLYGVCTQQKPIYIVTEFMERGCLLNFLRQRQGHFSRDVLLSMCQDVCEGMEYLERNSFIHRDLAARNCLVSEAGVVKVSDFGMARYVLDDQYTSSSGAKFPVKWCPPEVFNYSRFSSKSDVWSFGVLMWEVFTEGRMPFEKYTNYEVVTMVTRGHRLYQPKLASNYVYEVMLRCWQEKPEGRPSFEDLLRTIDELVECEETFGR
The experiment in a line: NanoBRET in-cell target engagement, TEC. The class given is binding. On the procedure: as §1

The nature of data set [1]: Body weight in the mice xenograft model. The class given is in vivo. Conditions: up to 20 mg/kg i.p. every 2 days. On the procedure:
Female adult BALB/c/NSG mice were injected subcutaneously with 1 × 10^6 Raji cells, in a 1:1 solution of Matrigel Matrix (Corning) to create solid tumors. When tumors reached 180 mm^3 on average, mice were randomized into four groups (n = 6/group), and dosing began every 2 days. […] Tumor size and body weight were monitored periodically for 12 days. At the end of the experiment, mice necropsies were performed. Stereological analysis was conducted by the Histopathology Unit at Instituto Gulbenkian de Ciência and by the Comparative Pathology Unit at Instituto de Medicina Molecular João Lobo Antunes. Quantification of metastases and cell necrosis was performed in all groups (n = 5/group). Statistical analysis was conducted using one-way ANOVA. The Dunnet test was used to analyze the statistical significance between the treatment groups and the control.

The next data set concerns Mo1043 cells (CLL). As to the kind of experiment: Cell viability assay (CellTiter-Glo), Mo1043. Type of data set: cell-based. The note with it: 72 h, n = 3. Background: Cellular ATP, detected with luciferase, serves as a proxy for viable cell number.
Another data set concerns the target T3, BMX (Homo sapiens, UniProt P51813).
T3 construct: host or cells: HEK296T (so in the source)
T3 sequence (P51813 1-675): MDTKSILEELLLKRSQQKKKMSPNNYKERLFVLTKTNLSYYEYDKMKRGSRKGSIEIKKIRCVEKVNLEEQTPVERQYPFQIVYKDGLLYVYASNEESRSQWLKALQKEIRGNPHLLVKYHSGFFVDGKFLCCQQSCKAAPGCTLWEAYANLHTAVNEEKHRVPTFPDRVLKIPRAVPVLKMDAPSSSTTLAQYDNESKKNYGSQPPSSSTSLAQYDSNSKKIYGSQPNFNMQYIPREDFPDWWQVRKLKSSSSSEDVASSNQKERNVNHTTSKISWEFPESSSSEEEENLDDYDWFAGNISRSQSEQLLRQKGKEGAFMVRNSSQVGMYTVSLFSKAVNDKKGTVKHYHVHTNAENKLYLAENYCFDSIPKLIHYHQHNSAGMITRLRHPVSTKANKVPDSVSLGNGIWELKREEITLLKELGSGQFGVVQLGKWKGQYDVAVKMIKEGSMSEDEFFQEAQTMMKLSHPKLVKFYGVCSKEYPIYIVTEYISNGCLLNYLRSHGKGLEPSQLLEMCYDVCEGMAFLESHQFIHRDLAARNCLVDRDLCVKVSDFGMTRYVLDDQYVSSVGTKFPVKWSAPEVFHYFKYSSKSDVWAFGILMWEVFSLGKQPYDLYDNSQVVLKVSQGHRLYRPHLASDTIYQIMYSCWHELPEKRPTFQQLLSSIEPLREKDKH
Conditions: first value of 3.5/49 in Table S3; ref SI 20; read-out: IC50, BMX, earlier value of JS25; cited from earlier work.

Where two headings read alike, the source gives them in different places.

BLK, sequence (P51451 whole entry): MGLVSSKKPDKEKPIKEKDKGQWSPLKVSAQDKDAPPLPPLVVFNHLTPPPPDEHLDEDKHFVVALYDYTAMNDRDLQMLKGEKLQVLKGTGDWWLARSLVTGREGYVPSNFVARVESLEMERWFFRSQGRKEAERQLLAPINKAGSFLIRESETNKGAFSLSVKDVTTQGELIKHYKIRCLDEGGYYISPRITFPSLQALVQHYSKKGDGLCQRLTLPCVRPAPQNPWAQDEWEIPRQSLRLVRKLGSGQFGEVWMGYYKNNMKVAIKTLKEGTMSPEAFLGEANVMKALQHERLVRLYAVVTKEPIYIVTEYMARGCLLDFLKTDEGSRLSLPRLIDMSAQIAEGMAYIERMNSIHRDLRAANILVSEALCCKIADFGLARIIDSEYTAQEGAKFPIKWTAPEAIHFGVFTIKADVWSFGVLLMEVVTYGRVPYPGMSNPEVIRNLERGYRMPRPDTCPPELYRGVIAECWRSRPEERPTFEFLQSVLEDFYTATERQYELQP
T1 sequence (P00533 25-1210): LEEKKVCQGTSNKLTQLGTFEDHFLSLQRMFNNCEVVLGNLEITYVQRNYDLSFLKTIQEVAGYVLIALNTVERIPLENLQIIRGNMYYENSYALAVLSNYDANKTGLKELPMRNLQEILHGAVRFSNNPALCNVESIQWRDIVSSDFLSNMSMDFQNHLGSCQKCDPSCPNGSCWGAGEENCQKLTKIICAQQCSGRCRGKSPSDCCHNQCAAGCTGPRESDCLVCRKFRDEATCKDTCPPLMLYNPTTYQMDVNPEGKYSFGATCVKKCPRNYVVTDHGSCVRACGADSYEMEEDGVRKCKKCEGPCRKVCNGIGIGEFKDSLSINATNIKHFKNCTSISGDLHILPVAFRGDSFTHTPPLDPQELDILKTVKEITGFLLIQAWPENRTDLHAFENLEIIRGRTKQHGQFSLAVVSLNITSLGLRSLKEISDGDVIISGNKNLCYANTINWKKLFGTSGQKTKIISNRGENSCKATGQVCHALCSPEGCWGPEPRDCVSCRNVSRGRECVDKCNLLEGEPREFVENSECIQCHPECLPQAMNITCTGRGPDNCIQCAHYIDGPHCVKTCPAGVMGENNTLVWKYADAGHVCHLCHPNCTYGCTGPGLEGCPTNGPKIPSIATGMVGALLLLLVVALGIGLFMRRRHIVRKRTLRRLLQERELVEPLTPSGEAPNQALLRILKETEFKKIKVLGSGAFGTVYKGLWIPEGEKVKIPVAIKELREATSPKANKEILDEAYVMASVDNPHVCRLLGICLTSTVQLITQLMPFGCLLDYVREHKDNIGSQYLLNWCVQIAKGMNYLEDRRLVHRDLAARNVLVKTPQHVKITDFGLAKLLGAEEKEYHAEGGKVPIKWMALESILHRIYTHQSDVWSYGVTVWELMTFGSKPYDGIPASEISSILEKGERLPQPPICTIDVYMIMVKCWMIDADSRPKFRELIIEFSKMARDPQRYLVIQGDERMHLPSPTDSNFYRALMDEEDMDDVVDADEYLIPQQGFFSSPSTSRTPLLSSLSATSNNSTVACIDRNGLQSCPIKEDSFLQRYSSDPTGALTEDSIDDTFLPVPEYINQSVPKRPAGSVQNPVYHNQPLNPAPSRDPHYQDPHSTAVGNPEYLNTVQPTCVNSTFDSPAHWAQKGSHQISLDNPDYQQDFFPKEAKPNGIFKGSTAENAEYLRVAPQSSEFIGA

As for `C=CC(=O)Nc1cc(C)cc(-n2c(=O)ccc3cnc4ccc(-c5ccc(NS(C)(=O)=O)cc5)cc4c32)c1` [JS25], the “selectivity for BTK relative to BLK” value on BLK was determined as 100 fold. Also, the IC50 was 2.6e-06 M at BLK (HEK296T cells, 1 h incubation, average of duplicates, read-out: IC50 (M), BLK); around 3e-06 M on BLK (NanoBRET value as given in Table S3, read-out: IC50, BLK); above 3 µM against EGFR; 0.22 µM against TEC (HEK296T cells, 1 h incubation, average of duplicates); 3.4 ± 0.01 µM in the data set with Mo1043 cells (CLL); 0.0035 µM on BMX. The results for the BTK degradation result on BTK (4 h) and at BTK (15 h) were “evident” and “almost completed”, respectively. In addition, on TEC, the “selectivity for BTK relative to TEC” value is given as around 8 fold. The “selectivity (kinase/BTK), TEC” value at TEC (IC50 kinase/IC50 BTK) came to 7.7. In addition, the “body weight fluctuation by the end of the treatment” value in data set [1] is “no weight fluctuations were observed”.

(Values after article PMC9667546, “Selective Inhibition of Bruton’s Tyrosine Kinase by a Designed Covalent Ligand Leads to Potent Therapeutic Efficacy in Blood Cancers Relative to Clinically Used Inhibitors” (ACS Pharmacology & Translational Science, 2022).)
